# According to patent US12398110B2, “Second generation inhibitors of mitochondrial permeability transition pore with improved plasma stability” (Oregon Health & Science University, priority 2019, dated 2025):
# Legend:
# [1] = test system: mtPTP; assay: Ca2+ retention capacity (CRC) of isolated mouse liver mitochondria; type: biochemical
# Experimental: CRC determines the Ca^2+ threshold required for mtPTP activation; inhibitors of mtPTP are expected to increase the Ca^2+ threshold required for mtPTP induction. Extramitochondrial Ca^2+ changes are detected using the membrane-impermeant Ca^2+ indicator, Calcium Green-5N.
# Isolation of mitochondria. C57BL6/N mouse liver mitochondria were prepared from 2 to 6 month old male mice by standard differential centrifugation. Mice fed ad libitum were euthanized with CO2 followed cervical dislocation, their livers were existed and placed in a glass beaker containing ice-cold isolation buffer (IB: 0.25 m sucrose, 10 mm Tris-HCl, 0.1 mm EGTA-Tris, pH 7.4) supplemented with fatty acid free bovine serum albumin. Livers were then cut into small pieces with scissors, rinsed with ice-cold IB, and passed through a pre-chilled Potter homogenizer with Teflon pestle. The homogenate (˜30 mL per liver) was transferred to centrifuge tubes, and unbroken cells and nuclei were removed by centrifugation at 700 g for 10 min at 4° C. The supernatant containing mitochondria and other organelles was transferred to new tubes and centrifuged at 6000 g for 10 min at 4° C. The resulting supernatant was discarded and mitochondrial pellet was carefully suspended in ice-cold IB and spun at 9500 g for 5 min at 4° C. The pellet was suspended in IB to give a protein concentration of ˜60-80 mg/mL and stored on ice. Experiments were started immediately and completed within 5 h. Protein concentration was determined by the Biuret method.
# Assessment of Ca^2+ retention capacity (CRC). CRC of isolated mouse liver mitochondria was assessed as follows: First, 0.1 mL of SAB were dispensed to a 96-well black assay plate in the presence of 2% DMSO (control wells) or varying concentrations of test compounds, in 1:2 serial dilutions. Then, 0.1 mL of 0.5 mg/mL mitochondria in SAB devoid of respiratory substrates, but supplemented with 1 μm Calcium Green-5N were added to all wells of the assay plate. A train of 10 μm CaCl2 pulses was added at 2 min intervals, and fluorescence intensity (ex/em 485/535 nm) was read on Tecan Infinite F200 plate reader.
# [2] = test system: HeLa cells; assay: Oxygen consumption rate of HeLa cell monolayers (Seahorse XF24); type: cell-based; conditions: ~2 h treatment
# From the text: (§1) A thorough evaluation of toxicity is critical for advancing TR001 to in vivo studies. […] To more thoroughly examine mitochondrial toxicity, we analyzed oxygen consumption rates (OCRs) using the Seahorse XF24 extracellular flux analyzer. This allowed us to assess the effects of TR001 on mitochondrial respiration and ATP synthesis. […] Consequently respiratory control ratios (i.e., the ratios between ADP-stimulated and basal respiration) were not affected across the concentrations tested (FIG. 5B). Complex III inhibitor antimycin A shuts down the electron transport chain at the bc1 complex and was used to account for oxygen leak.
# Measurement of respiration. Mitochondrial oxygen consumption of isolated mitochondria or HeLa cell monolayer was assessed with the Seahorse Extracellular Flux Analyzer XF24 (Seahorse Bioscience, Billerica, MA, USA). Isolated mouse liver mitochondria: Mitochondrial assay solution contained 220 mm mannitol, 70 mm sucrose, 25 mm MOPS-Tris, 10 mm Pi-Tris, 5 mm MgCl2, 1 mm EGTA-Tris, 0.2% fatty acid free BSA, 5 mm succinate and 2 μm rotenone, pH 7.4. Mitochondria (5 μg, suspended in 50 μL mitochondrial assay solution) were added to each well of an XF24 cell culture microplate, centrifuged at 2000 g for 20 min at 4° C. and then supplemented with 450 μL of mitochondrial assay solution containing 4 mm ADP to initiate the experiments. […]
# [3] = test system: isolated mouse liver mitochondria; assay: Oxygen consumption rate of isolated mitochondria (Seahorse XF24); type: biochemical
# From the text: as §1
# Measurement of respiration. Mitochondrial oxygen consumption of isolated mitochondria or HeLa cell monolayer was assessed with the Seahorse Extracellular Flux Analyzer XF24 (Seahorse Bioscience, Billerica, MA, USA). Isolated mouse liver mitochondria: Mitochondrial assay solution contained 220 mm mannitol, 70 mm sucrose, 25 mm MOPS-Tris, 10 mm Pi-Tris, 5 mm MgCl2, 1 mm EGTA-Tris, 0.2% fatty acid free BSA, 5 mm succinate and 2 μm rotenone, pH 7.4. Mitochondria (5 μg, suspended in 50 μL mitochondrial assay solution) were added to each well of an XF24 cell culture microplate, centrifuged at 2000 g for 20 min at 4° C. and then supplemented with 450 μL of mitochondrial assay solution containing 4 mm ADP to initiate the experiments.
# [4] = test system: col6a1 zebrafish morphants; assay: Touch-evoked escape response in col6a1 zebrafish morphants; type: in vivo; conditions: 48 hpf, 27 hours of treatment, 0.1, 1 and 10 μm
# Experimental: Zebrafish embryos were injected with col6a1 morpholino at the 1-cell stage, dechorionated at 20 hpf and treated at 21 hpf with 0.1, 1 or 10 μm of either TR001 or 63. DMSO-treated embryos injected with a scrambled morpholino were used as a control. […] It should be noted that in these protocols, embryos were exposed to drugs for a longer period of time than in the spontaneous coiling experiments. This difference may help to explain why TR001 was as effective at 0.1 μm as it was at 1 and 10 μm.
# Morpholino antisense injection and treatment. Knock-down of col6a1 gene expression was obtained with a previously published morpholino ^[25] with sequence GAGAGCGGAAGACGAACCTTCATTC (SEQ ID NO: 2; GeneTools, Inc.). A control morpholino with no sequence homology in the zebrafish genome was used in parallel (CCTCTTACCTCAGTTACAATTTATA; SEQ ID NO: 3). Zebrafish eggs from wild-type matings were injected at the 1-2 cell stage with approximately 10 nL of 0.1 mm morpholino solution (corresponding to 4 ng of morpholino) using a WPI pneumatic PicoPump PV820 injector (World Precision Instruments, Inc.). Zebrafish embryos were dechorionated at 20 hours post fertilization (hpf) and treated at 21 hpf with increasing doses (0.1, 1 and 10 μm) of both TR001 and 63 compounds dissolved in fish water with 1% DMSO (vehicle).
# Motor activity. The number of spontaneous coiling events performed in 15 seconds by single zebrafish embryos was recorded at 24 hpf by light microscopy. Touch-evoked escape responses were recorded at 48 hpf by observing the ability of zebrafish embryos to escape after a tail-touch with a little tip. Embryos were subdivided in 4 groups according to the observed phenotype: paralyzed embryos, score 0; underdeveloped embryos showing only coiling events, score 1; embryos showing lower motility, score 2; normal embryos, score 3.
compound,measurement,setting,value
"Cc1ccc(Cl)cc1NC(=O)c1cn(-c2ccc(F)c(O)c2)nn1 [TR001, N-(5-chloro-2-methylphenyl)-1-(4-fluoro-3-hydroxyphenyl)-1H-1,2,3-triazole-4-carboxamide]",CRC effect in combination with CsA,[1]; TR001 in combination with 2 μm CsA,additive with CsA
same,CRC/CRC0 at 1.25 μM,"[1]; compound treated CRC to DMSO treated CRC0 ratio, 1.25 μM, average ± SEM, n = 3-25",6.8 ± 0.4
same,maximal efficacy as defined by CRC/CRC0 ratio,[1]; mouse liver mitochondria,~10
same,mitochondrial dysfunction (OCR) in intact cells,[2],did not cause mitochondrial dysfunction
same,"rates of oxygen consumption (ADP stimulation, oligomycin, FCCP)",[3],no effect
same,respiratory control ratios,[3]; across the concentrations tested,not affected
same,touch-evoked escape response (motility),[4],improved
